Assays:
Rat α4β2 = molecular target: T1, Rat α4β2 (Rattus norvegicus, UniProt P09483+P12390); assay: Competition binding to rat α4β2 receptors in membrane preparations
T1 construct: Preparation of membranes from rat tissues; Rat cortices were obtained from Analytical Biological Services; tissue Analytical Biological Services, Incorporated (ABS, Wilmington, Del.); host or cells: rat cortex membranes (female Sprague-Dawley)
How it was run: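 Rat cortical membranes (female Sprague-Dawley, ~0.2 mg protein) incubated 2 h on ice in PBS pH 7.4 with competitor (0.001 nM to […]) and [3H]-epibatidine. Bound radioligand collected by filtration and counted by scintillation. IC50 by nonlinear regression; Ki via Cheng-Prusoff.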

Rat α7 = molecular target: T2, Rat α7 (Rattus norvegicus, UniProt Q05941); assay: Competition binding to rat α7 receptors in membrane preparations
T2 construct: Preparation of membranes from rat tissues; Rat cortices were obtained from Analytical Biological Services; tissue Analytical Biological Services, Incorporated (ABS, Wilmington, Del.); host or cells: rat brain membranes (only cortex is described)
Protocol: (§1) Preparation of membranes from rat tissues. Rat cortices were obtained from Analytical Biological Services, Incorporated (ABS, Wilmington, Del.). Tissues were dissected from female Sprague-Dawley rats, frozen and shipped on dry ice. Tissues were stored at −20° C. until needed for membrane preparation. Cortices from 10 rats were pooled and homogenized by Polytron (Kinematica GmbH, Switzerland) in 10 volumes (weight:volume) of ice-cold preparative buffer (KCl, 11 mM; KH2PO4, 6 mM; NaCl 137 mM; Na2HPO4 8 mM; HEPES (free acid), 20 mM; iodoacetamide, 5 mM; EDTA, 1.5 mM; 0.1 mM PMSF pH 7.4). The resulting homogenate was centrifuged at 40,000 g for 20 minutes at 4° C. and the resulting pellet was resuspended in 20 volumes of ice-cold water. After 60-minute incubation at 4° C., a new pellet was collected by centrifugation at 40,000 g for 20 minutes at 4° C. The final pellet was resuspended in preparative buffer and stored at −20° C. On the day of the assay, tissue was thawed, centrifuged at 40,000 g for 20 minutes and then resuspended in PBS (Dulbecco's Phosphate Buffered Saline, Life Technologies, pH 7.4) to a final concentration of 2-3 mg protein/mL. Protein concentrations were determined using the Pierce BCA Protein Assay kit (Pierce Biotechnology, Rockford, Ill.), with bovine serum albumin as the standard. Preparation of membranes from clonal cell lines. Cells were harvested in ice-cold PBS, pH 7.4, then homogenized with a polytron (Brinkmann Instruments, Westbury, N.Y.). Homogenates were centrifuged at 40,000 g for 20 minutes (4° C.). The pellet was resuspended in PBS and protein concentration determined using the Pierce BCA Protein Assay kit (Pierce Biotechnology, Rockford, Ill.).
(§2) Competition binding to receptors in membrane preparations. Binding to nicotinic receptors was assayed on membranes using standard methods adapted from published procedures (Lippiello and Fernandes, 1986; Davies et al., 1999). In brief, membranes were reconstituted from frozen stocks (approximately 0.2 mg protein) and incubated for 2 h on ice in […] assay buffer (PBS) in the presence of competitor compound (0.001 nM to […]) and radioligand. [^3H]-nicotine (L-(−)-[N-methyl-3H]-nicotine, 69.5 Ci/mmol, Perkin-Elmer Life Sciences) was used for human α4β2 binding studies. [^3H]-epibatidine (52 Ci/mmol, Perkin-Elmer Life Sciences) was used for binding studies at the other receptor subtypes. Incubation was terminated by rapid filtration on a multimanifold tissue harvester (Brandel, Gaithersburg, Md.) using GF/B filters presoaked in 0.33% polyethyleneimine (w/v) to reduce non-specific binding. Filters were washed 3 times and the radioactivity retained was determined by liquid scintillation counting.
Binding data analysis. Binding data were expressed as percent total control binding. Replicates for each point were averaged and plotted against the log of drug concentration. The IC50 (concentration of the compound that produces 50% inhibition of binding) was determined by least squares non-linear regression using GraphPad Prism software (GraphPAD, San Diego, Calif.). Ki was calculated using the Cheng-Prusoff equation (Cheng and Prusoff, 1973).

Human α7 = molecular target: T3, Human α7 (Homo sapiens, UniProt P36544); assay: Competition binding to human α7 receptors in membrane preparations
T3 construct: host or cells: HEK cells co-expressing RIC3
Protocol: SH-EP1/human α4β2 (Eaton et al., 2003), SH-EP1/human α4β4 (Gentry et al., 2003), SH-EP1/α6β3β4α5 (Grinevich et al., 2005), TE671/RD and SH-SY5Y cell lines (obtained from Dr. Ron Lukas, Barrow Neurological Institute) were maintained in proliferative growth phase in Dulbecco's modified Eagle's medium (Gibco/BRL) with 10% horse serum (Gibco BRL), 5% fetal bovine serum (HyClone, Logan Utah), 1 mM sodium pyruvate, 4 mM L-glutamine. For maintenance of stable transfectants, the α4β2 and α4β4 cell media was supplemented with 0.25 mg/mL zeocin and 0.13 mg/mL hygromycin B. Selection was maintained for the α6β3β4α5 cells with 0.25 mg/mL of zeocin, 0.13 mg/mL of hygromycin B, 0.4 mg/mL of geneticin, and 0.2 mg/mL of blasticidin. HEK/human α7/RIC3 cells (obtained from J. Lindstrom, U. Pennsylvania) were maintained in proliferative growth phase in Dulbecco's modified Eagle's medium (Gibco/BRL) with 10% fetal bovine serum (HyClone, Logan Utah), 1 mM sodium pyruvate, 4 mM L-glutamine, 0.4 mg/mL geneticin; 0.2 mg/ml hygromycin B.
as §1, §2
Binding data analysis. Binding data were expressed as percent total control binding. Replicates for each point were averaged and plotted against the log of drug concentration. […]

human α4β2 = human α4β2 (Homo sapiens, UniProt P17787+P43681); assay: Competition binding to human α4β2 receptors in membrane preparations; conditions: membranes, [3H]-nicotine competition; Ki by Cheng-Prusoff; read-out: human α4β2 Ki
male ICR mice = assay: Formalin test (2.5%) in mice; format: in vivo
Protocol: The formalin test in mice is a valid and reliable model of nociception and is sensitive for various classes of analgesic drugs. The noxious stimulus is an injection of dilute formalin (1% in saline) under the skin of the dorsal surface of the right hindpaw. The response is the amount of time the animals spend licking the injected paw. Two distinct periods of high licking activity can be identified, an early phase lasting the first 5 min and a late phase lasting from 20 to 30 min after the injection of formalin. See, Hunskaar et al., Pain, 1987, July; 30(1):103-14, incorporated by reference with regard to the test.
A formalin test was carried out in an open Plexiglas cage, with a mirror placed under the floor to allow an unobstructed view of the paws. Mice were allowed to acclimate for 15 min in the test cage before formalin injection. Each animal was injected with 20 μl of 2.5% formalin in the intraplantar region of the right hindpaw. Mice were then observed 0-5 min (Phase 1) and 20-45 min (Phase 2) post-formalin, and the amount of time spent (expressed in sec) licking the injected paw was recorded. Compound A or vehicle were injected s.c. 15 min before the formalin injection.
FIG. 1 illustrates the effects of Compound A in the formalin test (2.5%) in male ICR mice. As described, subject mice were pretreated with an s.c. injection of Compound A and 15 minutes later received formalin ipl. […] The lowest active dose was 3 mg/kg.

## Fc1cncc(N2CC3CNCC(C2)O3)c1 [Compound A, 3-(5-fluoropyridin-3-yl)-9-oxa-3,7-diazabicyclo[3.3.1]nonane]
Rat α4β2
  Ki: 1.3 nM
Rat α7
  Ki: 36 nM
Human α7
  Ki: 76 nM
Human α4β2
  Ki: 1.8 nM
Male ICR mice; 0-5 min post-formalin, s.c. 15 min before formalin, F(1,35)=41.8, P<0.0001
  nociceptive behavior (time licking the injected paw), Phase 1: significantly reduced
Male ICR mice; 20-45 min post-formalin, s.c. 15 min before formalin, F(1,35)=24.8, P<0.0001
  nociceptive behavior (time licking the injected paw), Phase 2: significantly reduced
Male ICR mice; formalin test, s.c. administration
  lowest active dose: 3 mg/kg
Male ICR mice; mecamylamine 2 mg/kg
  effects in formalin test in presence of mecamylamine: blocked

Reference: US20110257168A1, “DERIVATIVES OF OXABISPIDINE AS NEURONAL NICOTINIC ACETYLCHOLINE RECEPTOR LIGANDS” (Targacept, Inc., priority 2008, published 2011)
